Test results published in patent US7348151B1, “Method for the cellular high-throughput-detection of nuclear receptor ligand interactions” (priority 1998, dated 2008).
Where two headings read alike, the source gives them in different places.

System: ligand-binding domain of the human estrogen receptor (amino acids 282-595) fused to human Ha-Ras (L61) in cdc25-2 yeast cells
Format: cell-based
Conditions: for growth of cdc25-2-yeast cells: Glu medium + E (10^−5M)
From the text: Expression of a functional, membrane-associated Ras protein fused to a nuclear receptor and/or parts of one such can be detected by the fact that the yeast cells are able to grow irrespective of the presence of a functional GEF protein at said restrictive temperatures if a suitable ligand of the expressed nuclear receptor is present.
The basic vector used is a vector with a marker gene (Ura) and a galactose-inducible promoter (GALI) for the fusion gene to be expressed. As shown diagrammatically in FIG. 2, the DNA sequence to be expressed encodes:
1. a myristylation signal,
3. the human Ha-Ras (L61) which is constitutively active and which lacks the so-called CAAX box, the farnesylation signal for membrane localization.
Conventional yeast transformation and manipulation protocols (see, for example, Hill et al. (1991), NAR 19, 5791) were used. The cells were plated out either on a glucose minimal medium which contains the necessary amino acids and nucleotides (20 mg/l histidine, 100 mg/l leucine, 20 mg/l tryptophan, 20 mg/l uracil, 10 mg/l adenine sulfate), 2% glucose, 0.5% NH4SC4, 0.17% yeast extract and 4% agar, or on galactose medium (1.7 g/l yeast nitrogen without amino acids, 5 g/l ammonium sulfate, 30 g/l galactose (>99%) 20 g/l D-raffinose, 20 g/l glycerol (100%), 30 g/l Bacto Agar).
Clones were plated out on YPD medium (1% yeast extract, 2% Bacto tryptone and 2% glucose) as control. YPD medium contains no galactose, so that there ought to be no expression of the fusion protein.
Replica platings were carried out with velvet replica plater. After transformation with the nucleic acid vector described above, the cells were plated out on glucose plates and incubated at a non-restrictive temperature of 25° C. for three to four days.

estrogen
growth of cdc25-2-yeast cells (25° C. (non-restrictive)): + | growth of cdc25-2-yeast cells (37° C. (restrictive), 12 to 36 h, OD 600): − | cell reproduction of transformed clones (YPD medium (no galactose, no expression of the fusion protein) with addition of estrogen, control): no cell reproduction
